# Data taken from US20110251066A1, “ISOXAZOLE DERIVATIVES FOR USE AS PLANT GROWTH REGULATORS” (SYNGENTA CROP PROTECTION LLC, priority 2008, published 2011).
# Legend:
# [1] = PGR activity of separated enantiomers (test not specified); conditions: (R)- versus (S)-enantiomer of compound 146
# [2] = tested on: grape seedlings cultivar (cv.) Gutedel; assay: Plant growth regulation effects on grape seedlings; format: in vivo; conditions: 200 ppm, spray chamber, 8 days at 22° C. and 80% r.h.
# Experimental: Five weeks old grape seedlings cultivar (cv.) Gutedel were treated with the formulated test compound in a spray chamber. After an incubation period of 8 days at 22° C. and 80% relative humidity (r.h.) in a greenhouse, the plant growth regulating effects were assessed.
# Septoria tritici = assay: Fungal growth inhibition in nutrient broth, microtiter plate, photometric; format: cell-based; conditions: 200 ppm, 24° C., 72 hours
# Experimental: Septoria tritici (leaf blotch): Conidia of the fungus from cryogenic storage were directly mixed into nutrient broth (PDB potato dextrose broth). After placing a (DMSO) solution of the test compounds into a microtiter plate (96-well format) the nutrient broth containing the fungal spores was added. The test plates were incubated at 24° C. and the inhibition of growth was determined photometrically after 72 hours. Compound (S)-(146) gave at least 80% control of Septoria tritici at 200 ppm.
# Rhizoctonia solani = assay: as above; format: cell-based; conditions: 200 ppm, 24° C., 48 h
# Experimental: Rhizoctonia solani (foot rot, damping-off): Mycelial fragments of the fungus, prepared from a fresh liquid culture, were directly mixed into nutrient broth (PDB potato dextrose broth). After placing a (DMSO) solution of the test compounds into a microtiter plate (96-well format) the nutrient broth containing the fungal mycelium was added. The test plates were incubated at 24° C. and the inhibition of growth was determined photometrically after 48 h. Compound (S)-(146) gave at least 80% control of Rhizoctonia solani at 200 ppm.
# Fusarium culmorum = assay: as above; format: cell-based; conditions: 200 ppm, 24° C., 48 hours
# Experimental: Fusarium culmorum (root rot): Conidia of the fungus from cryogenic storage were directly mixed into nutrient broth (PDB potato dextrose broth). After placing a (DMSO) solution of the test compounds into a microtiter plate (96-well format) the nutrient broth containing the fungal spores was added. The test plates were incubated at 24° C. and the inhibition of growth was determined photometrically after 48 hours. Compound (S)-(146) gave at least 80% control of Fusarium culmorum at 200 ppm.
# Mycosphaerella arachidis = assay: as above; format: cell-based, Mycosphaerella arachidis (syn. Cercospora arachidicola); conditions: 200 ppm, 24° C., 72 hours, 620 nm
# Experimental: Mycosphaerella arachidis (syn. Cercospora arachidicola), Brown leaf spot of groundnut (peanut): Conidia of the fungus from cryogenic storage were directly mixed into nutrient broth (PDB potato dextrose broth). After placing a (DMSO) solution of the test compounds into a microtiter plate (96-well format) the nutrient broth containing the fungal spores was added. The test plates were incubated at 24° C. and the inhibition of growth was determined photometrically after 72 hours at 620 nm. Compound (S)-(146) gave at least 80% control of Mycosphaerella arachidis at 200 ppm.
# Monographella nivalis = assay: as above; format: cell-based; conditions: 200 ppm, 24° C., 72 hours, 620 nm
# Experimental: Monographella nivalis (syn. Microdochium nivale, Fusarium nivale), snow mould, foot rot of cereals: Conidia of the fungus from cryogenic storage were directly mixed into nutrient broth (PDB potato dextrose broth). After placing a (DMSO) solution of the test compounds into a microtiter plate (96-well format) the nutrient broth containing the fungal spores was added. The test plates were incubated at 24° C. and the inhibition of growth was determined photometrically after 72 hours at 620 nm. Compound (S)-(146) gave at least 80% control of Monographella nivalis at 200 ppm.
# Botrytis cinerea = assay: as above; format: cell-based; conditions: 200 ppm, 24° C., 72 hours
# Experimental: Botrytis cinerea (Gray mould): Conidia of the fungus from cryogenic storage were directly mixed into nutrient broth (PDB potato dextrose broth). After placing a (DMSO) solution of the test compounds into a microtiter plate (96-well format) the nutrient broth containing the fungal spores was added. The test plates were incubated at 24° C. and the inhibition of growth was determined photometrically after 72 hours. Compound (S)-(146) gave at least 80% control of Botrytis cinerea at 200 ppm.
# winter wheat = assay: Plant growth effects on cereals: spray at beginning of stem elongation, visual growth reduction; format: in vivo; conditions: 225 g a.i./ha spray, 28 days after spray, visually evaluated versus untreated control
# Source text: (§1) Plants of winter wheat and summer wheat were sprayed at the beginning of stem elongation, three weeks after sowing. Formulated test compounds 144, 145 and 146 were sprayed at 225 g a.i. (active ingredient)/ha, each, top over leaf with a boom sprayer on the plants. After the spray the plants were transferred to a greenhouse and 28 days after the spray the plant growth reduction was visually evaluated versus an untreated control.
# summer wheat = assay: as above; format: in vivo; conditions: 225 g a.i./ha spray, 28 days after spray, visually evaluated versus untreated control
# Source text: as §1
# [3] = tested on: wheat plants cultivar (cv.). Riband; assay: Plant growth regulation effects on wheat plants; format: in vivo; conditions: 200 ppm, spray chamber, 8 days at 22° C. and 80% r.h.
# Experimental: Two weeks old wheat plants cultivar (cv.). Riband were treated with the formulated test compound in a spray chamber. After an incubation period of 8 days at 22° C. and 80% relative humidity (r.h.) in a greenhouse, the plant growth regulating effects were assessed.
smiles,measurement,setting,value
"O[C@H](c1cccnc1)c1c(-c2ccc(Cl)cc2F)noc1-c1ccc(F)cc1F (single isomer, unassigned) [Compound 153]","PGR activity, enantiomer comparison",[1],majority of PGR activity
same,plant growth regulating effect (plant height),[2],plant height decreased
"O[C@@H](c1cccnc1)c1c(-c2ccc(Cl)cc2F)noc1-c1ccc(F)cc1F (single isomer, unassigned) [Compound (S)-(146)]",control of Septoria tritici,Septoria tritici,at least 80%
same,control of Rhizoctonia solani,Rhizoctonia solani,at least 80%
same,control of Fusarium culmorum,Fusarium culmorum,at least 80%
same,control of Mycosphaerella arachidis,Mycosphaerella arachidis,at least 80%
same,control of Monographella nivalis,Monographella nivalis,at least 80%
same,control of Botrytis cinerea,Botrytis cinerea,at least 80%
OC(c1cncnc1)c1c(-c2ccc(Cl)cc2F)noc1-c1ccc(F)cc1F (stereo not drawn) [Compound 144],Winter Wheat % reduction (plant growth reduction),winter wheat,7.5%
same,Summer Wheat % reduction (plant growth reduction),summer wheat,10%
same,plant growth regulating effect (plant height),[2],plant height decreased
same,plant growth regulating effect (plant height),[3],plant height decreased
OC(c1cncnc1)c1c(-c2ccc(Cl)cc2)noc1-c1ccc(F)cc1F (stereo not drawn) [Compound 145],Winter Wheat % reduction (plant growth reduction),winter wheat,5%
same,Summer Wheat % reduction (plant growth reduction),summer wheat,17.5%
same,plant growth regulating effect (plant height),[2],plant height decreased
"OC(c1cccnc1)c1c(-c2ccc(Cl)cc2F)noc1-c1ccc(F)cc1F (stereo not drawn) [Compound 146, 3-(2-Fluoro-4-Chlorophenyl)-5-(2,4-difluorophenyl)-4-[(3-pyridyl)hydroxymethyl]-isoxazole]",melting point,,138 to 140 °C
same,Winter Wheat % reduction (plant growth reduction),winter wheat,10%
same,Summer Wheat % reduction (plant growth reduction),summer wheat,10%
"OC(c1cncnc1)c1c(-c2ccc(Cl)cc2Cl)noc1-c1ccccc1Cl (stereo not drawn) [Compound 147, 3-(2,4-Chlorophenyl)-5-(2-Chlorophenyl)-4-[(3-pyrimidyl)hydroxymethyl]-isoxazole]",plant growth regulating effect (plant height),[2],plant height decreased
"OC(c1cncnc1)c1c(-c2ccc(Cl)cc2F)noc1-c1ccccc1Cl (stereo not drawn) [Compound 148, 3-(2-Fluoro-4-Chlorophenyl)-5-(2-Chlorophenyl)-4-[(3-pyrimidyl)hydroxymethyl]-isoxazole]",plant growth regulating effect (plant height),[2],plant height decreased
"COc1ncccc1-c1onc(-c2ccc(Cl)cc2)c1C(O)c1cncnc1 (stereo not drawn) [Compound 149, 3-(4-Chlorophenyl)-5-(2-Methoxypyridine)-4-[(3-pyrimidyl)hydroxymethyl]-isoxazole]",plant growth regulating effect (plant height),[2],plant height decreased
"OC(c1cncnc1)c1c(-c2ccc(Cl)cc2)noc1-c1ccc(F)cc1 (stereo not drawn) [Compound 150, 3-(4-Chlorophenyl)-5-(4-Fluorophenyl)-4-[(3-pyrimidyl)hydroxymethyl]-isoxazole]",plant growth regulating effect (plant height),[2],plant height decreased
"OC(c1cncnc1)c1c(-c2ccc(Cl)cc2)noc1-c1ccc(F)cc1F (stereo not drawn) [Compound 151, 3-(4-Chlorophenyl)-5-(2,4-Fluorophenyl)-4-[(3-pyrimidyl)hydroxymethyl]-isoxazole]",plant growth regulating effect (plant height),[2],plant height decreased
"OC(c1cccnc1)c1c(-c2ccc(F)cc2F)noc1-c1ccc(F)cc1Cl (stereo not drawn) [Compound 152, 3-(2,4-Diluoro)-5-(2-Chloro-4-Fluorophenyl)-4-[(3-pyridyl)hydroxymethyl]-isoxazole]",plant growth regulating effect (plant height),[2],plant height decreased
